Assay results as given in PMC5761724 (Journal of medicinal chemistry, 2017).

Columns and labels:
Rpn11 = Rpn11 (Homo sapiens, UniProt O00487); test: Rpn11 fluorescence polarization deubiquitination assay; assay type: biochemical
Cytotoxicity assay = assay type: cell-based; details: human, HCT 116 cells
BRISC complex = BRISC complex (Homo sapiens, UniProt P46736); test: BRISC activity assay; assay type: biochemical; details: Figure S1
[1] = system: Ub^G76V-GFP Hela cells (proteasome activity); test: Ub^G76V-GFP degradation assay; assay type: cell-based; details: Homo sapiens, read-out: Ub^G76VGFP Hela Cell IC50
Csn5 = Csn5 (Homo sapiens, UniProt Q92905); test: CSN5 activity assay; assay type: biochemical
AMSH = molecular target: T1, AMSH (Homo sapiens, UniProt O95630); test: AMSH activity assay; assay type: biochemical
T1 sequence (O95630 1-424): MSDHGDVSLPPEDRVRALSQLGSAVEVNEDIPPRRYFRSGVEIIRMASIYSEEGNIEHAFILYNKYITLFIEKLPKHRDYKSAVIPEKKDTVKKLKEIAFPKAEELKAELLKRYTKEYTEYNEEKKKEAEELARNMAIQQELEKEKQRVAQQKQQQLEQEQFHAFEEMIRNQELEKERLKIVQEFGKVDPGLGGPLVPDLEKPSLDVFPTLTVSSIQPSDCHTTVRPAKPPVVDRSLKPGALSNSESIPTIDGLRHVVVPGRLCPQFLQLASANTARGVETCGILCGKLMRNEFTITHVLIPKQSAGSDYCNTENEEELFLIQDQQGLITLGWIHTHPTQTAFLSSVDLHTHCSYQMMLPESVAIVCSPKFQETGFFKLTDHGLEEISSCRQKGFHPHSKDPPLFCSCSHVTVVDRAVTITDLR

[2] = HCT 116 Cytotoxicity IC50, Table 2

For Sc1cccc2cccnc12 [8TQ, 8-thioquinoline], the “inhibition of Rpn11 in MBP library screen” value (Rpn11; fragment concentration of 200 μM) was “essentially complete inhibition”, the ligand efficiency (Rpn11; from Rpn11 IC50) was 0.69 and the IC50 at 72 h (Cytotoxicity assay; HCT 116 Cytotoxicity, Table 1) was 1.3 µM. For the same compound, the “inhibition of BRISC” value (BRISC complex) was “significant inhibition”.
In the case of Sc1cccc2ccccc12 [Compound 2], the IC50 at 72 h (Cytotoxicity assay; HCT 116 Cytotoxicity, Table 1) is reported as > 100 µM.
For Cc1cccc2cccnc12 [Compound 3], the IC50 at 72 h (Cytotoxicity assay; HCT 116 Cytotoxicity, Table 1) was > 100 µM.
In the case of CSc1cccc2cccnc12 [Compound 6, 8-(Methylthio)quinoline], the IC50 at 72 h (Cytotoxicity assay; HCT 116 Cytotoxicity, Table 1) is reported as > 100 µM.
With Sc1cccc2ncccc12 [Compound 7c, Quinoline-5-thiol] the IC50 at 72 h (Cytotoxicity assay; HCT 116 Cytotoxicity, Table 1) was > 100 µM.
For Sc1ccnc2cccnc12 [Compound 8e, 1,5-Naphthyridine-4-thiol], the “fold weaker Rpn11 activity compared to 8TQ” value (Rpn11) was ~ 6 fold.
For Cc1ccc2cccc(S)c2n1 [Compound 9c, 2-Methylquinoline-8-thiol], the IC50 at 72 h (Cytotoxicity assay; [2]) was > 50 µM.
With Cc1ccnc2c(S)cccc12 [Compound 11c, 4-Methylquinoline-8-thiol] the IC50 at 72 h (Cytotoxicity assay; [2]) was > 10 µM.
For O=C(NCCc1nccs1)c1cnc2c(O)cccc2c1 [Compound 47, 8-Hydroxy-N-(2-(thiazol-2-yl)ethyl)quinoline-3-carboxamide], the IC50 [1] was > 100 µM.
For CSc1cccc2cc(C(=O)NCCc3nccs3)cnc12 [Compound 48, 8-(Methylthio)-N-(2-(thiazol-2-yl)ethyl)quinoline-3-carboxamide], the IC50 [1] was > 100 µM.
For O=C(NCCc1nccs1)c1cnc2c(S)ccnc2c1 [Compound 50f, 8-Mercapto-N-(2-(thiazol-2-yl)ethyl)-1,5-naphthyridine-3-carboxamide], the IC50 (Rpn11; Rpn11 IC50) was ~82 µM, the IC50 (Rpn11; Rpn11 IC50, Table 5, control compounds) was 82 ± 14 µM and the IC50 (Csn5) was > 100 µM. For the same compound, the IC50 (AMSH) was > 100 µM and the IC50 [1] was > 100 µM.
